# Measurements: patent publication US20230295234A1, “ANTIMICROBIAL PEPTIDOMIMETICS” (SPEXIS AG, priority 2020, published 2023)
# Like-named read-outs stand apart in the source and are kept apart here. Bridge positions count the residues as written; N and C are the ends. Square brackets hold non-standard residues; d marks the D form. Peptide text beside a SMILES is read from it. Gly(N-2-aminoethyl) = NCCNCC(=O)O; Pen = CC(C)(S)[C@H](N)C(=O)O; dDab = NCC[C@@H](N)C(=O)O; Dab = NCC[C@H](N)C(=O)O; Nlys = NCCCCNCC(=O)O
# What was measured:
# [1] = tested on: human red blood cells (hRBC); assay: Hemolysis of human red blood cells; format: cell-based; settings: red cells of human, 1 h
# Method in brief: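 Percent hemolysis is OD540 of peptide-treated supernatant relative to water-lysed cells. Each peptide was tested at 200 μg/mL against 20% (v/v) washed human erythrocytes. Incubation was 1 h at 37 °C, 300 rpm.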
# [2] = tested on: Klebsiella pneumoniae SSI3010; settings: SSI3010
# Method in brief: (§1)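 Standardized inocula (0.5 McFarland in saline, then diluted in MHII broth to approximately 5×10^5 CFU/mL) were exposed to two-fold dilution series of each peptide in the presence of polysorbate 80 (0.002% final).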
# [3] = tested on: Escherichia coli MCR-1 Af 45
# Method in brief: as §1
# [4] = tested on: Escherichia coli ATCC 25922; settings: ATCC 25922
# Method in brief: as §1
# [5] = Mueller-Hinton broth II, 18-20 hours at 35° C.
Compound,Klebsiella pneumoniae SSI3010 MIC [2] [µg/mL],Escherichia coli ATCC 25922 MIC [4] [µg/mL],Escherichia coli MCR-1 Af 45 MIC ([3]; MCR-1 Af 45) [µg/mL],Hemolysis at 0.2 g/L [1] [%],"Escherichia coli MCR-1 Af 45 MIC [3, 5] [µg/mL]"
"CC[C@H](C)[C@H](NC(=O)[C@@H]1C[C@@H](O)CN1C(=O)[C@@H](N=C(N(C)C)N(C)C)C(C)C)C(=O)N[C@H](C(=O)N[C@@H](Cc1ccc(O)cc1)C(=O)N[C@@H]1C(=O)N[C@@H](CC(N)=O)C(=O)N[C@@H](CCCNC(=N)N)C(=O)N[C@@H](CCN)C(=O)N[C@@H]([C@@H](C)O)C(=O)N[C@H](CCN)C(=O)N[C@@H](CCCCN)C(=O)N[C@H](C(=O)N[C@@H](CCN)C(=O)N[C@@H](CCCNC(=N)N)C(=O)N[C@@H](Cc2ccc(O)cc2)C(=O)O)CSSC1(C)C)[C@@H](C)O [Example 203] (HELM PEPTIDE1{[CC(C)[C@H](N=C(N(C)C)N(C)C)C(=O)[*:2]].[Hyp].I.T.Y.[Pen].N.R.[Dab].T.[NCC[C@@H](N[*:1])C(=O)[*:2]].K.C.[Dab].R.Y}$PEPTIDE1,PEPTIDE1,6:R3-13:R3$$$V2.0)",0.5,0.25,–,0,0.125
"CC[C@H](C)[C@H](NC(=O)[C@@H]1C[C@@H](O)CN1C(=O)[C@@H](N)C(C)C)C(=O)N[C@@H](CCN)C(=O)N[C@@H](Cc1ccc(O)cc1)C(=O)N[C@@H]1C(=O)N[C@@H](CC(N)=O)C(=O)N[C@@H](CCCNC(=N)N)C(=O)N[C@@H](CCN)C(=O)N[C@@H]([C@@H](C)O)C(=O)N[C@H](CCN)C(=O)N[C@@H](CCCCN)C(=O)N[C@H](C(=O)N[C@@H](CCN)C(=O)N[C@H](C(=O)N[C@@H](Cc2ccc(O)cc2)C(=O)O)[C@@H](C)O)CSSC1(C)C [Example 153] (HELM PEPTIDE1{V.[Hyp].I.[Dab].Y.[Pen].N.R.[Dab].T.[NCC[C@@H](N[*:1])C(=O)[*:2]].K.C.[Dab].T.Y}$PEPTIDE1,PEPTIDE1,6:R3-13:R3$$$V2.0)",0.5,0.125,–,0,0.5
"CC[C@H](C)[C@H](NC(=O)[C@@H]1C[C@@H](O)CN1C(=O)[C@@H](N)C(C)C)C(=O)N[C@H](C(=O)N[C@@H](Cc1ccc(O)cc1)C(=O)N[C@@H]1C(=O)N[C@@H](CC(N)=O)C(=O)N[C@@H](CCCNC(=N)N)C(=O)N[C@@H](CCN)C(=O)N[C@@H]([C@@H](C)O)C(=O)N[C@H](CCN)C(=O)N[C@@H](CCCCN)C(=O)N[C@H](C(=O)N[C@@H](CCN)C(=O)N[C@@H](CCN)C(=O)N[C@@H](Cc2ccc(O)cc2)C(=O)O)CSSC1(C)C)[C@@H](C)O [Example 177] (HELM PEPTIDE1{V.[Hyp].I.T.Y.[Pen].N.R.[Dab].T.[NCC[C@@H](N[*:1])C(=O)[*:2]].K.C.[Dab].[Dab].Y}$PEPTIDE1,PEPTIDE1,6:R3-13:R3$$$V2.0)",0.25,0.125,–,0,0.125
"CC[C@H](C)[C@H](NC(=O)CN(CCN)C(=O)[C@@H](NC(=O)CN(CCN)C(=O)[C@@H](N)CCCCN)C(C)C)C(=O)N[C@H](C(=O)N[C@@H](Cc1ccc(O)cc1)C(=O)N[C@@H]1C(=O)N[C@@H](CC(N)=O)C(=O)N[C@@H](CCCNC(=N)N)C(=O)N[C@@H](CCN)C(=O)N[C@@H]([C@@H](C)O)C(=O)N[C@H](CCN)C(=O)N[C@@H](CCCCN)C(=O)N[C@H](C(=O)N[C@@H](Cc2ccc(O)cc2)C(=O)N[C@@H](CCCNC(=N)N)C(=O)N[C@@H](Cc2ccc(O)cc2)C(=O)O)CSSC1(C)C)[C@@H](C)O [Example 62, Lys-Ndab-Val-Ndab-Ile-Thr-Tyr-Pen-Asn-Arg-Dab-Thr-^DDab-Lys-Cys-Tyr-Arg-Tyr] (H-K[Gly(N-2-aminoethyl)]V[Gly(N-2-aminoethyl)]ITY[Pen]NR[Dab]T[dDab]KCYRY-OH; disulfide 8-15)",0.25,0.25,0.125,0,–
"CCCC[C@H](NC(=O)[C@H](CCCNC(=N)N)NC(=O)[C@H](CCC(N)=O)NC(=O)[C@@H]1CSSC[C@H](NC(=O)[C@H](Cc2ccc(O)cc2)NC(=O)[C@@H](NC(=O)[C@@H](NC(=O)[C@@H]2CCCN2C(=O)[C@@H](NC(=O)[C@@H]2CCCN2C(=O)[C@H](CCCCN)NC(=O)[C@@H](N)CCCCN)C(C)C)[C@@H](C)CC)[C@@H](C)CC)C(=O)N[C@@H](CC(N)=O)C(=O)N[C@@H](CCCNC(=N)N)C(=O)N[C@@H](CCN)C(=O)N[C@@H]([C@@H](C)O)C(=O)N[C@H](CCN)C(=O)N[C@@H](CCN)C(=O)N1)C(=O)O [Example 64] (HELM PEPTIDE1{K.K.P.V.P.I.I.Y.C.N.R.[Dab].T.[NCC[C@@H](N[*:1])C(=O)[*:2]].[Dab].C.Q.R.[Nle]}$PEPTIDE1,PEPTIDE1,9:R3-16:R3$$$V2.0)",0.25,0.0625,0.125,0,–

# Second part, led by results:
Klebsiella pneumoniae SSI3010 MIC [2] [µg/mL],Escherichia coli ATCC 25922 MIC [4] [µg/mL],Escherichia coli MCR-1 Af 45 MIC ([3]; MCR-1 Af 45) [µg/mL],Compound,Hemolysis at 0.2 g/L [1] [%],"Escherichia coli MCR-1 Af 45 MIC [3, 5] [µg/mL]"
0.125,0.25,0.25,CC[C@H](C)[C@H](NC(=O)[C@@H](NC(=O)[C@@H]1CCCN1C(=O)[C@@H](NC(=O)[C@@H]1CCCN1C(=O)[C@H](CCCCN)NC(=O)CNCCCCN)C(C)C)[C@@H](C)CC)C(=O)N[C@@H](Cc1ccc(O)cc1)C(=O)N[C@H]1CSSC[C@@H](C(=O)N[C@@H](CCN)C(=O)N[C@@H](CCCNC(=N)N)C(=O)N[C@@H](Cc2ccc(O)cc2)C(=O)O)NC(=O)[C@H](CCCCN)NC(=O)[C@@H](CCN)NC(=O)[C@H]([C@@H](C)O)NC(=O)CN(CCCCN)C(=O)[C@H](CCCNC(=N)N)NC(=O)[C@H](CC(N)=O)NC1=O [Example 112] (H-[Nlys]KPVPIIYCNR[Nlys]T[dDab]KC[Dab]RY-OH; disulfide 9-16),0,–
0.0625,≤0.03125,≤0.03125,"CC[C@H](C)[C@H](NC(=O)[C@@H](NC(=O)[C@@H]1CCCN1C(=O)[C@@H](NC(=O)[C@@H]1CCCN1C(=O)CN(CCN)C(=O)[C@@H](N)CCCCN)C(C)C)[C@@H](C)CC)C(=O)N[C@@H](Cc1ccc(O)cc1)C(=O)N[C@H]1CSSC[C@@H](C(=O)N[C@@H](CCN)C(=O)N[C@@H](CCCNC(=N)N)C(=O)N[C@@H](Cc2ccc(O)cc2)C(=O)O)NC(=O)[C@H](CCCCN)NC(=O)[C@@H](CCN)NC(=O)[C@H]([C@@H](C)O)NC(=O)[C@H](CCN)NC(=O)[C@H](CCCNC(=N)N)NC(=O)[C@H](CC(N)=O)NC1=O [Example 99] (HELM PEPTIDE1{K.[NCCN(CC(=O)[*:2])[*:1]].P.V.P.I.I.Y.C.N.R.[Dab].T.[NCC[C@@H](N[*:1])C(=O)[*:2]].K.C.[Dab].R.Y}$PEPTIDE1,PEPTIDE1,9:R3-16:R3$$$V2.0; N-terminus assumed)",0,–
0.0625,≤0.03125,≤0.03125,"CC[C@H](C)[C@H](NC(=O)[C@@H](NC(=O)[C@@H]1CCCN1C(=O)[C@@H](NC(=O)[C@@H]1CCCN1C(=O)[C@H](CCCCN)NC(=O)[C@@H](N)CCCCN)C(C)C)[C@@H](C)CC)C(=O)N[C@@H](Cc1ccc(O)cc1)C(=O)N[C@H]1CSSC(C)(C)[C@@H](C(=O)N[C@@H](CCN)C(=O)N[C@@H](CCCNC(=N)N)C(=O)N[C@@H](Cc2ccc(O)cc2)C(=O)O)NC(=O)[C@H](CCCCN)NC(=O)[C@@H](CCN)NC(=O)[C@H]([C@@H](C)O)NC(=O)[C@H](CCN)NC(=O)[C@H](CCCNC(=N)N)NC(=O)[C@H](CC(N)=O)NC1=O [Example 103] (HELM PEPTIDE1{K.K.P.V.P.I.I.Y.C.N.R.[Dab].T.[NCC[C@@H](N[*:1])C(=O)[*:2]].K.[Pen].[Dab].R.Y}$PEPTIDE1,PEPTIDE1,9:R3-16:R3$$$V2.0)",0,–
0.25,0.125,0.125,"CC[C@H](C)[C@H](NC(=O)[C@@H](NC(=O)[C@@H]1CCCN1C(=O)[C@@H](NC(=O)[C@@H]1C[C@@H](N)CN1C(=O)[C@H](CCCCN)NC(=O)[C@@H](N)CCCCN)C(C)C)[C@@H](C)CC)C(=O)N[C@@H](Cc1ccc(O)cc1)C(=O)N[C@H]1CCNC(=O)CC[C@@H](C(=O)N[C@@H](CCN)C(=O)N[C@@H](CCCNC(=N)N)C(=O)N[C@@H](Cc2ccc(O)cc2)C(=O)O)NC(=O)[C@H](CCCCN)NC(=O)[C@@H](CCN)NC(=O)[C@H]([C@@H](C)O)NC(=O)[C@H](CCN)NC(=O)[C@H](CCCNC(=N)N)NC(=O)[C@H](CC(N)=O)NC1=O [Example 131, Lys-Lys-Pro((4R)NH2)-Val-Pro-Ile-Ile-Tyr-Dab-Asn-Arg-Dab-Thr-^DDab-Lys-Glu-Dab-Arg-Tyr] (HELM PEPTIDE1{K.K.[N[C@@H]1C[C@@H](C(=O)[*:2])N([*:1])C1].V.P.I.I.Y.[Dab].N.R.[Dab].T.[NCC[C@@H](N[*:1])C(=O)[*:2]].K.E.[Dab].R.Y}$PEPTIDE1,PEPTIDE1,9:R3-16:R3$$$V2.0)",0,–
0.125,0.125,0.125,"CC[C@H](C)[C@H](NC(=O)[C@@H](NC(=O)[C@@H]1CCCN1C(=O)[C@@H](NC(=O)[C@@H]1CCCN1C(=O)[C@H](CCCCN)NC(=O)[C@@H](N)CCCCN)C(C)C)[C@@H](C)CC)C(=O)N[C@@H](Cc1ccc(O)cc1)C(=O)N[C@H]1CSSC[C@@H](C(=O)N[C@@H](CCN)C(=O)N(CCN)CC(=O)N[C@@H](Cc2ccc(O)cc2)C(=O)O)NC(=O)[C@H](CCCCN)NC(=O)[C@@H](CCN)NC(=O)[C@H]([C@@H](C)O)NC(=O)[C@H](CCN)NC(=O)[C@H](CCCNC(=N)N)NC(=O)[C@H](CC(N)=O)NC1=O [Example 110] (HELM PEPTIDE1{K.K.P.V.P.I.I.Y.C.N.R.[Dab].T.[NCC[C@@H](N[*:1])C(=O)[*:2]].K.C.[Dab].[NCCN(CC(=O)[*:2])[*:1]].Y}$PEPTIDE1,PEPTIDE1,9:R3-16:R3$$$V2.0)",0,–
